Measured values from EP0705259B1, “PHENYRROLE DERIVATIVES AND THEIR USE AS DOPAMINE D3 ANTAGONISTS” (SMITHKLINE BEECHAM PLC, priority 1993, dated 1995).
Structures can show the parent of a compound that is named as a salt.

Each compound was assayed against T1, human D3 dopamine receptors (Homo sapiens, UniProt P35462) (assay: biochemical). Conditions: human D3 receptor; CHO cell membranes, 0.1 nM [125I] iodosulpride, 30 min at 37°C.
T1 construct: expressed in transfected cells; host or cells: CHO cells (crude cell membranes)
Format: binding
Method: Cultures were grown as monolayers or in suspension in standard cell culture media. Cells were recovered by scraping (from monolayers) or by centrifugation (from suspension cultures), and were washed two or three times by suspension in phosphate buffered saline followed by collection by centrifugation. Cell pellets were stored frozen at -40°C. Crude cell membranes were prepared by homogenisation followed by high-speed centrifugation, and characterisation of cloned receptors achieved by radioligand binding.
Cell pellets were gently thawed at room temperature, and resuspended in about 20 volumes of ice-cold 50 mM Tris salts (pH 7.4 @ 37°C), 20mM EDTA, 0.2 M sucrose. The suspension was homogenised using an Ultra-Turrax (TM) at full speed for 15 sec. The homogenate was centrifuged at 18,000 r.p.m for 20 min at 4°C in a Sorvall RC5C centrifuge. The membrane pellet was resuspended in ice-cold 50 mM Tris salts (pH 7.4 @ 37°C), using an Ultra-Turrax (TM), and recentrifuged at 18,000 r.p.m for 15 min at 4°C in a Sorvall RC5C. The membranes were washed two more times with ice-cold 50 mM Tris salts (pH 7.4 @ 37°C). The final pellet was resuspended in 50 mM Tris salts (pH 7.4 @ 37°C), and the protein content determined using bovine serum albumin as a standard (Bradford, M. M. (1976) Anal. Biochem. 72, 248-254).
Crude cell membranes were incubated with 0.1 nM [^125I] iodosulpride (∼2000 Ci/mmol; Amersham, U. K.), and the test compound in a buffer containing 50 mM Tris salts (pH 7.4 @ 37°C), 120 mM NaCl, 5 mM KCl, 2 mM CaCl2, 1 mM MgCl2, 0.1% (w/v) bovine serum albumin, in a total volume of 1 ml for 30 min at 37°C. Following incubation with the test compound, samples were filtered using a Brandel Cell Harvester (TM), and washed three times with ice-cold 50 mM Tris salts (pH 7.4 @ 37°C), 120 mM NaCl, 5 mM KCl, 2 mM CaCl2, 1 mM MgCl2. The radioactivity on the filters was measured using a Cobra (TM) gamma counter (Canberra Packard). Non-specific binding was defined as the radioligand binding remaining after incubation in the presence of 100 µM iodosulpride. For competition curves, 14 concentrations (half-log dilutions) of competing cold drug were used.
Competition curves were analysed simultaneously whenever possible using non-linear least-squares fitting procedures, capable of fitting one, two or three site models.

T1 sequence (P35462 whole entry): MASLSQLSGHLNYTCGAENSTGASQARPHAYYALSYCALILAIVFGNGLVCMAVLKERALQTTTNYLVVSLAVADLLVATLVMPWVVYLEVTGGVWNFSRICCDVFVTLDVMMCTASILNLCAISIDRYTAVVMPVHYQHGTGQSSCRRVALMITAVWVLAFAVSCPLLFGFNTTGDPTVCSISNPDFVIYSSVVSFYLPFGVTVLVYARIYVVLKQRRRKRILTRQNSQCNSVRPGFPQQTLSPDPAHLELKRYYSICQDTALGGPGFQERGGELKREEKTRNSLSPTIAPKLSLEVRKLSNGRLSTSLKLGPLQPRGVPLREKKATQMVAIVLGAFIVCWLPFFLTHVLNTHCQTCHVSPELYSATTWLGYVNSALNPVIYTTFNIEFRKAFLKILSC

Row | IC50 [µM] | Compound
1 | 0.001 to 0.05 | CCS(=O)(=O)c1ccc(OC)c(-c2ccc(CN3CCCCCC3c3ccccc3)[nH]2)c1 (racemic) [Example 3, 2-(5-Ethylsulphonyl-2-methoxyphenyl)-5-(1-(2-(R,S)-phenylazacycloheptyl)-methyl)-1H-pyrrole, hydrochloride]
2 | 0.001 to 0.05 | CCS(=O)(=O)c1cc(Br)c(OC)c(-c2ccc(CN3CCCCCC3c3ccccc3)[nH]2)c1 (racemic) [Example 6, 2-(3-Bromo-5-ethylsulphonyl-2-methoxyphenyl)-5-(1-(2-(R,S)-phenylazacycloheptyl)methyl)-1H-pyrrole, hydrochloride]
3 | 0.001 to 0.05 | CCS(=O)(=O)c1ccc(OC)c(-c2ccc(CN3CCCCC[C@@H]3c3ccccc3)[nH]2)c1 [Example 10, 2-(5-Ethylsulphonyl-2-methoxyphenyl)-5-(1-(2-(R)-phenylazacycloheptyl)methyl)-1H-pyrrole, oxalate]
4 | 0.001 to 0.05 | CCS(=O)(=O)c1ccc(OC)c(-c2ccc(CN3CCCCC[C@H]3c3ccccc3)[nH]2)c1 [Example 11, 2-(5-Ethylsulphonyl-2-methoxyphenyl)-5-(1-(2-(S)-phenylazacycloheptyl)methyl)-1H-pyrrole, oxalate]
5 | 0.001 to 0.05 | COc1ccc(S(=O)(=O)N2CCOCC2)cc1-c1ccc(CN2CCCCC[C@@H]2c2ccccc2)[nH]1 [Example 13, 2-(2-Methoxy-5-(4-morpholinyl)sulphonylphenyl)-5-(1-(2-(R)-phenylazacycloheptyl)methyl)-1H-pyrrole, oxalate]
